Patent publication US20210246157A1, “CAMPTOTHECIN DERIVATIVES AND PREPARATION METHODS AND APPLICATIONS THEREOF” (priority 2018, published 2021)
Values after ≈ are worked out from the molar mass of the structure shown. Like-named read-outs stand apart in the source and are kept apart here.

Legend:
[1] = Solubility test, equilibrium method, UV-visible spectrophotometry; assay type: physicochemical; conditions: thermodynamic from solid
Description: The solubility test is carried out by equilibrium method. […] An appropriate amount of the compound is weighed and dissolved in 1 mL of methanol solution to prepare a control solution with a certain concentration (C0). The concentration of test solution is calculated according to the following formula: Cx=(Ax/A0)C0, wherein Cx is concentration of test solution, Ax is absorbance of test solution, C0 is concentration of control solution, and A0 is absorbance of control solution.

[2] = test system: SW-480; assay: Cytotoxicity test (MTT, 72 h); conditions: Homo sapiens, SW480, 72 h, read-out: 50% Inhibiting Concentration value (IC50)
Description: (§1) Cells at logarithmic growth period are inoculated in a 96-well plate overnight, then drugs with a certain gradient concentrations are added, and incubation is carried out in a cell culture chamber (5% CO2, 37° C.) for 72 h.

[3] = test system: HT-29; assay: Cytotoxicity test (MTT, 72 h); conditions: Homo sapiens, HT-29, 72 h, read-out: 50% Inhibiting Concentration value (IC50)
Description: as §1

[4] = test system: HCT-116; assay: Cytotoxicity test (MTT, 72 h); conditions: Homo sapiens, HCT-116, 72 h, read-out: 50% Inhibiting Concentration value (IC50)
Description: (§2) In order to investigate the antitumor activities of the compounds, a variety of tumor cell lines for test are selected. Cells at logarithmic growth period are inoculated in a 96-well plate overnight, then drugs with a certain gradient concentrations are added, and incubation is carried out in a cell culture chamber (5% CO2, 37° C.) for 72 h.

[5] = test system: A549; assay: Cytotoxicity test (MTT, 72 h); conditions: Homo sapiens, A549, 72 h, read-out: 50% Inhibiting Concentration value (IC50)
Description: as §2

[6] = test system: H1975; assay: Cytotoxicity test (MTT, 72 h); conditions: Homo sapiens, NCI-H1975, 72 h, read-out: 50% Inhibiting Concentration value (IC50)
Description: as §2

[7] = test system: HepG2; assay: Cytotoxicity test (MTT, 72 h); conditions: Homo sapiens, HepG2, 72 h, read-out: 50% Inhibiting Concentration value (IC50)
Description: as §2

[8] = test system: BGC-823; assay: Cytotoxicity test (MTT, 72 h); conditions: Homo sapiens, BGC-823, 72 h, read-out: 50% Inhibiting Concentration value (IC50)
Description: as §2

[9] = test system: ECA-109; assay: Cytotoxicity test (MTT, 72 h); conditions: Homo sapiens, ECa-109, 72 h, read-out: 50% Inhibiting Concentration value (IC50)
Description: as §2

[10] = test system: K562; assay: Cytotoxicity test (MTT, 72 h); conditions: Homo sapiens, K562, 72 h, read-out: 50% Inhibiting Concentration value (IC50)
Description: as §2

[11] = test system: PC3; assay: Cytotoxicity test (MTT, 72 h); conditions: Homo sapiens, PC-3, 72 h, read-out: 50% Inhibiting Concentration value (IC50)
Description: as §2

[12] = test system: 143B; assay: Cytotoxicity test (MTT, 72 h); conditions: Homo sapiens, read-out: 50% Inhibiting Concentration value (IC50)
Description: as §2

[13] = test system: MDA-MB-231; assay: Cytotoxicity test (MTT, 72 h); conditions: Homo sapiens, MDA-MB-231, 72 h, read-out: 50% Inhibiting Concentration value (IC50)
Description: as §2

[14] = test system: Hela; assay: Cytotoxicity test (MTT, 72 h); conditions: Homo sapiens, read-out: 50% Inhibiting Concentration value (IC50)
Description: as §2

[15] = test system: TPC-1; assay: Cytotoxicity test (MTT, 72 h); conditions: Homo sapiens, TPC1, 72 h, read-out: 50% Inhibiting Concentration value (IC50)
Description: as §1

[16] = test system: SKOV-3; assay: Cytotoxicity test (MTT, 72 h); conditions: Homo sapiens, SK-OV-3, 72 h, read-out: 50% Inhibiting Concentration value (IC50)
Description: as §1

[17] = test system: PANC-1; assay: Cytotoxicity test (MTT, 72 h); conditions: Homo sapiens, PANC-1, 72 h, read-out: 50% Inhibiting Concentration value (IC50)
Description: as §1

[18] = aqueous with cosolvent or surfactant or cyclodextrin
[19] = aqueous buffer, PBS pH 7.4, read-out: Solubility in PBS (pH = 7.4)
[20] = aqueous with cosolvent or surfactant or cyclodextrin, 0.1% aqueous solution of Tween-80, read-out: Solubility in 0.1% Tween-80
[21] = saline or isotonic, normal saline, read-out: Solubility in Normal Saline (NS)
[22] = water, read-out: Solubility in Water

| Structure (SMILES) | IC50 [2] [µM] | IC50 [3] [µM] | IC50 [4] [µM] | IC50 [5] [µM] | IC50 [6] [µM] | IC50 [7] [µM] | IC50 [8] [µM] | IC50 [9] [µM] | IC50 [10] [µM] | IC50 [11] [µM] | IC50 [12] [µM] | IC50 [13] [µM] | IC50 [14] [µM] | IC50 [15] [µM] | IC50 [16] [µM] | IC50 [17] [µM] | solubility [1, 19] [µg/mL] | solubility [1, 20] [µg/mL] | solubility [1, 21] [µg/mL] | solubility [1, 22] [µg/mL] | other results |
| --- | --- | --- | --- | --- | --- | --- | --- | --- | --- | --- | --- | --- | --- | --- | --- | --- | --- | --- | --- | --- | --- |
| CCc1c2c(nc3ccc(OC(=O)OCCOCCOCc4cn(CCO[C@H]5O[C@@H](CO)[C@H](O)[C@@H](O)[C@@H]5O)nn4)cc13)-c1cc3c(c(=O)n1C2)COC(=O)[C@]3(O)CC [Compound 57] | 0.164 | 1.68 | 1.39 | 20.9 | 12.1 | 5.15 | 0.137 | 1.4 | 1.16 | 17.4 | 10.1 | 4.29 | 15.1 | 14.6 | 6.17 | 22.1 | – | – | – | – | solubility [1, 18]: 6460 µg/mL (≈ 7950 µM); solubility ([1]; pH 7.4, aqueous buffer): 361 µg/mL (≈ 444 µM); solubility ([1]; saline or isotonic): 4290 µg/mL (≈ 5290 µM); solubility ([1]; water): 178 µg/mL (≈ 219 µM) |
| CCc1c2c(nc3ccc(OC(=O)OCCOCCOCCOCCOCc4cn(CCO[C@H]5O[C@@H](CO)[C@H](O)[C@@H](O)[C@@H]5O)nn4)cc13)-c1cc3c(c(=O)n1C2)COC(=O)[C@]3(O)CC [Compound 59] | 1.21 | 1.13 | 1.67 | 8.03 | 10.5 | 2.73 | 1.01 | 0.939 | 1.39 | 6.69 | 8.77 | 2.28 | 9.64 | 12.6 | 3.28 | 9.64 | – | – | – | – | solubility [1, 18]: 1200 µg/mL (≈ 1340 µM); solubility ([1]; pH 7.4, aqueous buffer): 984 µg/mL (≈ 1090 µM); solubility ([1]; saline or isotonic): 854 µg/mL (≈ 949 µM); solubility ([1]; water): 1480 µg/mL (≈ 1650 µM) |
| CCc1c2c(nc3ccc(OC(=O)NCCOCc4cn([C@H]5O[C@@H](CO)[C@H](O)[C@@H](O)[C@@H]5O)nn4)cc13)-c1cc3c(c(=O)n1C2)COC(=O)[C@]3(O)CC [Compound 66] | 0.216 | 5.11 | 0.843 | 5.65 | 8.46 | 1.62 | 0.18 | 4.26 | 0.703 | 4.71 | 7.05 | 1.35 | 6.78 | 10.2 | 1.95 | 6.78 | 2880 (≈ 3980 µM) | 1140 (≈ 1580 µM) | 1590 (≈ 2210 µM) | 979 (≈ 1350 µM) | – |
| CCc1c2c(nc3ccc(OC(=O)NCCOCCOCc4cn([C@H]5O[C@@H](CO)[C@H](O)[C@@H](O)[C@@H]5O)nn4)cc13)-c1cc3c(c(=O)n1C2)COC(=O)[C@]3(O)CC [Compound 73] | 0.862 | 3.16 | 0.879 | 5.82 | 7.14 | 2.42 | 0.718 | 2.63 | 0.733 | 4.85 | 5.95 | 2.02 | 6.99 | 8.57 | 2.91 | 6.99 | 414 (≈ 540 µM) | 1260 (≈ 1650 µM) | 1440 (≈ 1880 µM) | 3580 (≈ 4670 µM) | – |
| CCc1c2c(nc3ccc(OC(=O)NCCOCCOCc4cn(CCO[C@H]5O[C@@H](CO)[C@H](O)[C@@H](O)[C@@H]5O)nn4)cc13)-c1cc3c(c(=O)n1C2)COC(=O)C3(O)CC (stereo partly drawn) [Compound 74] | 2.06 | 7.96 | 2.52 | 9.42 | 6.82 | 6.35 | 1.72 | 6.63 | 2.1 | 7.85 | 5.69 | 5.29 | 11.3 | 8.19 | 7.62 | 11.3 | 565 (≈ 696 µM) | 2750 (≈ 3390 µM) | 3950 (≈ 4880 µM) | 792 (≈ 977 µM) | – |
| CCc1c2c(nc3ccc(OC(=O)NCCCOCc4cn([C@H]5O[C@@H](CO)[C@H](O)[C@@H](O)[C@@H]5O)nn4)cc13)-c1cc3c(c(=O)n1C2)COC(=O)[C@]3(O)CC [Compound 80] | 1.43 | 6.94 | 5.15 | 6.13 | 10.7 | 9.33 | 1.19 | 5.78 | 4.29 | 5.11 | 8.9 | 7.78 | 7.36 | 12.8 | 11.2 | 7.36 | 792 (≈ 1080 µM) | 961 (≈ 1300 µM) | 642 (≈ 871 µM) | 82.5 (≈ 112 µM) | – |
| CCc1c2c(nc3ccc(OC(=O)NCCCOCc4cn(CCO[C@H]5O[C@@H](CO)[C@H](O)[C@@H](O)[C@@H]5O)nn4)cc13)-c1cc3c(c(=O)n1C2)COC(=O)[C@]3(O)CC [Compound 81] | 0.851 | 9.42 | 7.24 | 8.32 | 9.68 | 6.25 | 0.709 | 7.85 | 6.03 | 6.93 | 8.06 | 5.21 | 9.98 | 11.6 | 7.5 | 9.98 | 895 (≈ 1150 µM) | 1210 (≈ 1550 µM) | 985 (≈ 1260 µM) | 985 (≈ 1260 µM) | – |
| CCc1c2c(nc3ccc(OC(=O)NCCCCCOCc4cn([C@H]5O[C@@H](CO)[C@H](O)[C@@H](O)[C@@H]5O)nn4)cc13)-c1cc3c(c(=O)n1C2)COC(=O)[C@]3(O)CC [Compound 87] | 1.15 | 7.36 | 1.52 | 6.35 | 5.12 | 7.35 | 0.96 | 6.14 | 1.27 | 5.29 | 4.27 | 6.12 | 7.62 | 6.15 | 8.82 | 7.62 | 910 (≈ 1190 µM) | 1110 (≈ 1450 µM) | 894 (≈ 1170 µM) | 1050 (≈ 1370 µM) | – |
| CCc1c2c(nc3ccc(OC(=O)NCCCCCOCc4cn(CCO[C@H]5O[C@@H](CO)[C@H](O)[C@@H](O)[C@@H]5O)nn4)cc13)-c1cc3c(c(=O)n1C2)COC(=O)[C@]3(O)CC [Compound 88] | 0.865 | 9.1 | 2.73 | 9.13 | 6.98 | 6.22 | 0.721 | 7.58 | 2.27 | 7.61 | 5.82 | 5.18 | 11 | 8.38 | 7.46 | 11 | 895 (≈ 1110 µM) | 1350 (≈ 1670 µM) | 870 (≈ 1080 µM) | 1130 (≈ 1390 µM) | – |
